In brackets after ≈: the same amount, converted by molar mass.
What was measured:
Type in all cases: functional
Aspergillus niger [1] = experiment: Antifungal activity against Aspergillus niger hyphae
Aspergillus terreus [2] = experiment: Antifungal activity against Aspergillus terreus hyphae
Aspergillus flavus [3] = experiment: Antifungal activity against Aspergillus flavus hyphae
Aspergillus flavus [4] = experiment: Antifungal activity against Aspergillus flavus conidia
Aspergillus fumigatus [5] = experiment: Antifungal activity against Aspergillus fumigatus conidia
Aspergillus terreus [6] = experiment: Antifungal activity against Aspergillus terreus conidia
Aspergillus fumigatus [7] = experiment: Antifungal activity against Aspergillus fumigatus hyphae
Aspergillus niger [8] = experiment: Antifungal activity against Aspergillus niger conidia

Row | SMILES | MIC90 (Aspergillus niger [1]) | MIC90 (Aspergillus terreus [2]) | MIC90 (Aspergillus flavus [3]) | MIC90 (Aspergillus flavus [4]) | MIC90 (Aspergillus fumigatus [5]) | MIC90 (Aspergillus terreus [6]) | MIC90 (Aspergillus fumigatus [7]) | MIC90 (Aspergillus niger [8])
1 | C[C@@H]1[C@H](O)[C@@H](C)/C=C/C=C/C=C/C=C/C=C/C=C/C=C/[C@H](O[C@@H]2O[C@H](C)[C@@H](O)[C@H](N)[C@@H]2O)C[C@@H]2O[C@](O)(C[C@@H](O)C[C@@H](O)[C@H](O)CC[C@@H](O)C[C@@H](O)CC(=O)O[C@H]1C)C[C@H](O)[C@H]2C(=O)O [AMPHOTERICIN B] | 5 µg/mL (≈ 5.41 µM) | 5 µg/mL (≈ 5.41 µM) | 2.5 µg/mL (≈ 2.71 µM) | 1.25 µg/mL (≈ 1.35 µM) | 0.625 µg/mL (≈ 0.676 µM) | 2.5 µg/mL (≈ 2.71 µM) | 2.5 µg/mL (≈ 2.71 µM) | 1.25 µg/mL (≈ 1.35 µM)
2 | CC[C@@H]([C@H](C)O)n1ncn(-c2ccc(N3CCN(c4ccc(OC[C@@H]5CO[C@@](Cn6cncn6)(c6ccc(F)cc6F)C5)cc4)CC3)cc2)c1=O [POSACONAZOLE] | 1 µg/mL (≈ 1.43 µM) | 1 µg/mL (≈ 1.43 µM) | 0.5 µg/mL (≈ 0.713 µM) | 0.125 µg/mL (≈ 0.178 µM) | 0.125 µg/mL (≈ 0.178 µM) | 0.25 µg/mL (≈ 0.357 µM) | 0.5 µg/mL (≈ 0.713 µM) | 0.25 µg/mL (≈ 0.357 µM)
3 | C[C@@H](c1ncncc1F)[C@](O)(Cn1cncn1)c1ccc(F)cc1F [VORICONAZOLE] | 2 µg/mL (≈ 5.73 µM) | 1 µg/mL (≈ 2.86 µM) | 2 µg/mL (≈ 5.73 µM) | 0.5 µg/mL (≈ 1.43 µM) | 0.125 µg/mL (≈ 0.358 µM) | 0.5 µg/mL (≈ 1.43 µM) | 1 µg/mL (≈ 2.86 µM) | 0.5 µg/mL (≈ 1.43 µM)
